These are literature values, as cited in patent publication US20150147378A1, “COPOLYMER-XEROGEL NANOCOMPOSITES USEFUL FOR DRUG DELIVERY” (RUTGERS, THE STATE UNIVERSITY OF NEW JERSY, priority 2008, published 2015).

For `CO[C@H]1/C=C/O[C@@]2(C)Oc3c(C)c(O)c4c(O)c(c(/C=N/N5CCN(C)CC5)c(O)c4c3C2=O)NC(=O)/C(C)=C\C=C\[C@H](C)[C@H](O)[C@@H](C)[C@@H](O)[C@@H](C)[C@H](OC(C)=O)[C@@H]1C` [rifampicin], the “octanol/water partition coefficient, log P” value was 2.72.
